Data taken from patent US10130615B2, “Benzomorphan analogs and the use thereof” (priority 2014, dated 2018).

Tests used:
μ-opioid receptor [1] = molecular target: T1, μ-opioid receptor (Homo sapiens, UniProt P35372); experiment: biochemical; parameters: purchased Perkin Elmer, Shelton, Conn; host or cells: HEK-293 or CHO; details: HEK-293 or CHO cells; for Emax: relative to DAMGO, read-out: GTPγS μ Emax; for EC50: read-out: GTPγS μ EC50
κ-opioid receptor [2] = molecular target: T2, κ-opioid receptor (Homo sapiens, UniProt P41145); experiment: κ-opioid receptor GTPγS functional assay, U2OS cells; type: biochemical; parameters: expressed in transfected cells; host or cells: U-2 OS; details: U2OS cells; for EC50: read-out: GTPγS κ EC50
T2 sequence (P41145 whole entry): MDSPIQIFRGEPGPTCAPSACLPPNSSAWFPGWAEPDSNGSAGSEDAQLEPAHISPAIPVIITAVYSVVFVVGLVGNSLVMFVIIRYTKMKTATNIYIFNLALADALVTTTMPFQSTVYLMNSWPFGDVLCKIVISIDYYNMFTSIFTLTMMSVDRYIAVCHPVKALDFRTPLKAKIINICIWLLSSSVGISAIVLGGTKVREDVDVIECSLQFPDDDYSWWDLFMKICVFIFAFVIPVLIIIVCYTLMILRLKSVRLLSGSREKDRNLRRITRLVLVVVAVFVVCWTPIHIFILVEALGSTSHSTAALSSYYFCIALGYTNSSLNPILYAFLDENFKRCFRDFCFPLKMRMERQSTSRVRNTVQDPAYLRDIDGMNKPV
Procedure: (§1) Plates were incubated for 30 min at a temperature of about 25° C. with shaking.

κ-opioid receptor [3] = molecular target: T2, κ-opioid receptor; experiment: κ-opioid receptor radioligand binding assay ([3H]-U69,593); parameters: expressed in transfected cells; host or cells: HEK-293; details: HEK-293 or CHO cells; read-out: Ki (nM) Opioid Receptor κ
Procedure: κ-opioid Receptor Binding Assay Procedures: Membranes from recombinant HEK-293 cells expressing the human κ opioid receptor (κ) (cloned in house) were prepared by lysing cells in ice cold hypotonic buffer (2.5 mM MgCl2, 50 mM HEPES, pH 7.4) (10 mL/10 cm dish) followed by homogenization with a tissue grinder/Teflon pestle. Membranes were collected by centrifugation at 30,000×g for 15 min at 4° C. and pellets were resuspended in hypotonic buffer to a final concentration of 1-3 mg/mL. Protein concentrations were determined using the BioRad protein assay reagent with bovine serum albumen as standard. Aliquots of κ receptor membranes were stored at −80° C.
Radioligand dose displacement assays used 0.4 nM [^3H]-U69,593 (GE Healthcare, Piscataway, N.J.; 40 Ci/mmole) with 15 μg membrane protein (recombinant κ opioid receptor expressed in HEK 293 cells; in-house prep) in a final volume of 200 μl binding buffer (5% DMSO, 50 mM Trizma base, pH 7.4). Non-specific binding was determined in the presence of 10 μM unlabeled naloxone or U69,593. All reactions were performed in 96-well polypropylene plates for 1 hr at a temperature of about 25° C.

μ-opioid receptor [4] = molecular target: T1, μ-opioid receptor; experiment: cell-based; parameters: purchased Perkin Elmer, Shelton, Conn; details: U2OS cells; for Emax: read-out: β-Arr2 μ Emax
κ-opioid receptor [5] = molecular target: T2, κ-opioid receptor; experiment: κ-opioid receptor β-Arr2 activity response, U2OS cells; type: cell-based; parameters: expressed in transfected cells; host or cells: U-2 OS; details: U2OS cells; for EC50: read-out: β-Arr2 κ EC50
κ-opioid receptor [6] = molecular target: T2, κ-opioid receptor; experiment: κ-opioid receptor [35S]GTPγS functional assay, HEK-293 or CHO cells; type: biochemical; parameters: expressed in transfected cells; host or cells: HEK-293; details: HEK-293 or CHO cells; for EC50: read-out: GTPγS κ EC50; for Emax: relative to U69,593
Procedure: as §1

μ-opioid receptor [7] = molecular target: T1, μ-opioid receptor; experiment: μ-opioid receptor radioligand binding assay ([3H]-diprenorphine); parameters: purchased Perkin Elmer, Shelton, Conn; host or cells: HEK-293 or CHO; details: HEK-293 or CHO cells; read-out: Ki (nM) Opioid Receptor μ
Procedure: μ-opioid Receptor Binding Assay Procedures: Radioligand dose-displacement binding assays for μ-opioid receptors used 0.3 nM [^3H]-diprenorphine (Perkin Elmer, Shelton, Conn.), with […] membrane protein/well in a final volume of 500 μl binding buffer (10 mM MgCl2, 1 mM EDTA, 5% DMSO, 50 mM HEPES, pH 7.4). Reactions were carried out in the absence or presence of increasing concentrations of unlabeled naloxone. All reactions were conducted in 96-deep well polypropylene plates for 2 hr at room temperature. […] The data were analyzed using the one-site competition curve fitting functions in GraphPad PRISM™ v. 3.0 or higher (San Diego, Calif.), or an in-house function for one-site competition curve-fitting.

μ-opioid receptor [8] = molecular target: T1, μ-opioid receptor; experiment: μ-opioid receptor GTPγS functional assay, U2OS cells; details: for Emax: read-out: GTPγS μ Emax

T1 sequence (P35372 whole entry, species assumed): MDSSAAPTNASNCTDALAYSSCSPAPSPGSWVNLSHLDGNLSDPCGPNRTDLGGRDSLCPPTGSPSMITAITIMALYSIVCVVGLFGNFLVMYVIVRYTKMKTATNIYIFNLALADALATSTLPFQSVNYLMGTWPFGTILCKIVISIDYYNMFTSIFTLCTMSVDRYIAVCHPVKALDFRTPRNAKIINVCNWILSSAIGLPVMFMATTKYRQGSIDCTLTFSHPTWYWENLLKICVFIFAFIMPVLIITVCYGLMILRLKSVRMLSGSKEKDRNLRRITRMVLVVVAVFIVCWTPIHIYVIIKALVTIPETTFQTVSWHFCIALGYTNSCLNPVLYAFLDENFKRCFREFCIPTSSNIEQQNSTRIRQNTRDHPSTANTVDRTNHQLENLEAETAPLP

SMILES | Emax (μ-opioid receptor [1]) [%] | Emax (κ-opioid receptor [2]) [%] | EC50 (κ-opioid receptor [2]) [nM] | Ki (κ-opioid receptor [3]) [nM] | EC50 (μ-opioid receptor [4]; read-out: β-Arr2 μ EC50) [nM] | Emax (μ-opioid receptor [4]) [%] | Emax (κ-opioid receptor [5]) [%] | EC50 (κ-opioid receptor [5]) [nM] | EC50 (κ-opioid receptor [6]) [nM] | Emax (κ-opioid receptor [6]) [%] | Ki (μ-opioid receptor [7]) [nM] | EC50 (μ-opioid receptor [8]) [nM] | Emax (μ-opioid receptor [8]) [%] | EC50 (μ-opioid receptor [1]) [nM]
C[C@H]1[C@H]2Cc3ccc(O)cc3[C@]1(CCCC(=O)N(C)C)CCN2CC1CCC1 [Compound 28, 4-((2R,6R,11R)-3-(cyclobutylmethyl)-8-hydroxy-11-methyl-2,3,4,5-tetrahydro-2,6-methanobenzo[d]azocin-6(1H)-yl)-N,N-dimethylbutanamide] | 1 | 104 ± 2.85 | 0.49 ± 0.016 | 0.22 ± 0.056 | 30.5 ± 4.44 | 3.7 ± 0.49 | 45 ± 2.08 | 2.37 ± 0.62 | 4.58 ± 0.38 | 95.3 ± 1.45 | 1.45 ± 0.013 | 2.71 ± 0.67 | 57.3 ± 6.57 | –
CC(C)C[C@H](NCCCC[C@]12CCN(CC3CC3)[C@H](Cc3ccc(O)cc31)[C@@H]2C)C(=O)O [Compound 24, (4-((2R,6R,11R)-3-(cyclopropyl-methyl)-8-hydroxy-11-methyl-2,3,4,5-tetrahydro-2,6-methanobenzo[d]azocin-6(1H)-yl)butyl)-L-leucine] | 19.5 ± 2.26 | 98.3 ± 4.33 | 0.51 ± 0.072 | 0.55 ± 0.11 | – | -0.4 ± 0.6 | 54 ± 4.06 | 3.56 ± 0.91 | 9.32 ± 2.97 | 102 ± 5.57 | 2.89 ± 0.63 | 1.94 ± 0.28 | 77.3 ± 3.18 | 5.46 ± 0.51
COC(=O)[C@H](C)NCC[C@]12CCN(CC3CC3)[C@H](Cc3ccc(OC)cc31)[C@@H]2C [Compound 38, methyl (2-((2R,6R,11R)-3-(cyclopropyl-methyl)-8-methoxy-11-methyl-2,3,4,5-tetrahydro-2,6-methanobenzo[d]azocin-6(1H)-yl)ethyl)-L-alaninate] | 15.8 ± 1.03 | 112 ± 2.91 | 2.11 ± 0.23 | 0.78 ± 0.14 | – | -0.17 ± 0.93 | 70 ± 2 | 141 ± 45.5 | 287 ± 30 | 109 ± 5.46 | 94.7 ± 18.6 | 137 ± 16.1 | 53 ± 3.51 | 551 ± 173
COC(=O)[C@H](Cc1ccccc1)NCCCC[C@]12CCN(CC3CC3)[C@H](Cc3ccc(O)cc31)[C@@H]2C [Compound 27] | 1 | 106 ± 7.13 | 0.15 ± 0.023 | 0.054 ± 0.01 | – | 1 | 12.7 ± 1.86 | 0.27 ± 0.11 | 0.6 ± 0.12 | 61.7 ± 4.33 | 0.071 ± 0.021 | 0.27 ± 0.058 | 22.3 ± 2.85 | –
C[C@H]1[C@H]2Cc3ccc(O)cc3[C@]1(CCNC(=O)Cc1ccc(C(=O)O)cc1)CCN2CC1CC1 [Compound 31, 4-(2-((2-((2R,6R,11R)-3-(cyclopropyl-methyl)-8-hydroxy-11-methyl-2,3,4,5-tetrahydro-2,6-methanobenzo[d]azocin-6(1H)-yl)ethyl)amino)-2-oxoethyl)-benzoic acid] | 0 | 104 ± 3.48 | 18.5 ± 2.16 | 18.4 ± 3.6 | – | -1.25 | 29.7 ± 5.04 | 53.4 ± 8.62 | 94.2 ± 33.8 | 88.7 ± 6.89 | 25.1 ± 7.56 | 8.77 ± 1.37 | 58 ± 4.73 | –
C[C@H]1[C@H]2Cc3ccc(O)cc3[C@]1(CCCC(N)=O)CCN2CC1CCC1 [Compound 29, 4-((2R,6R,11R)-3-(cyclobutylmethyl)-8-hydroxy-11-methyl-2,3,4,5-tetrahydro-2,6-methanobenzo[d]azocin-6(1H)-yl)butanamide] | 1 | 108 ± 1.2 | 0.39 ± 0.016 | 0.12 ± 0.019 | – | -1.5 | 45 ± 3 | 2.06 ± 0.32 | 7.6 ± 1.67 | 87.7 ± 3.18 | 1.82 ± 0.57 | 2.65 ± 0.89 | 41.3 ± 4.91 | –
